This note sets out measurements from patent US6031084A, “Azoamide compound” (Wako Pure Chemical Industries, Ltd., priority 1998, dated 2000).

A short description of series [1]: 10 hours half life temperature (thermal decomposition). It counts as physicochemical.
Series [2] can be described thus: Measurement of Solubility in various kinds of polar solvents. It counts as physicochemical. As to conditions: for Solubility in 2-butanol: solvent: 2-butanol; for Solubility in Acetone: solvent: Acetone; for Solubility in Methanol: solvent: Methanol; for Solubility in Tetrahydrofuran: solvent: Tetrahydrofuran; for Solubility in Water: solvent: Water. The method, then:
Solubilities of 2,2'-azobis[N-(butanol-2-yl)-2-methylpropionamide] (hereinafter abbreviated as Present compound 1) obtained by Example 1 and 2,2'-azobis[N-(propanol-2-yl)-2-methylpropionamide] (hereinafter abbreviated as Present compound 2) obtained by Example 2 to various kinds of polar solvent was measured.
The same measurement of solubility as Experiment 1 was conducted except for using of 2,2'-azobis[2-methyl-N-(2-hydroxyethyl)-propionamide] [drawing 9] (hereinafter abbreviated as Known compound 1), 2,2'-azobis {2-methyl-N-[1,1-bis(hydroxymethyl)-2-hydroxyethyl] propionamide} [drawing 10] (hereinafter abbreviated as Known compound 2) and 2,2'-azobis {2-methyl-N-[1,1-bis(hydroxymethyl)ethyl] propionamide} [drawing 11] (hereinafter abbreviated as Known compound 3) in place of Present compound 1.

As to `CC(CO)NC(=O)C(C)(C)N=NC(C)(C)C(=O)NC(C)CO` (racemic) [Present compound 2, 2,2'-azobis[N-(propanol-2-yl)-2-methylpropionamide]], the “10 hours half life temperature” value in series [1] was determined as 83.1 °C. For the same molecule, in series [2], the “Solubility in a various kind of polar solvents compared with Known compounds 1, 2 and 3 (in words)” value is on record as “remarkably higher”; the “Solubility in rather low polar solvents such as 2-butanol (in words)” value was “soluble”; the “Solubility in 2-butanol” value is recorded as below 0.l; the “Solubility in Acetone” value was determined as 0.3 g. In addition, in series [2], the “Solubility in Methanol” value is on record as 6.5 g, the “Solubility in Tetrahydrofuran” value is recorded as 0.3 g and the “Solubility in Water” value is on record as 0.6 g.

In the case of `CC(C)(N=NC(C)(C)C(=O)NCCO)C(=O)NCCO` [Known compound 1, 2,2'-azobis[2-methyl-N-(2-hydroxyethyl)-propionamide]], in series [2], the “Solubility in 2-butanol” value was “insoluble”, the “Solubility in Acetone” value was “insoluble”, the “Solubility in Methanol” value amounted to 4.55 g and the “Solubility in Tetrahydrofuran” value is “insoluble”. Moreover, in series [2], the “Solubility in Water” value is 2.4 g.

With `CC(C)(N=NC(C)(C)C(=O)NC(CO)(CO)CO)C(=O)NC(CO)(CO)CO` [Known compound 2, 2,2'-azobis {2-methyl-N-[1,1-bis(hydroxymethyl)-2-hydroxyethyl]propionamide}], in series [2], the “Solubility in 2-butanol” value is “insoluble”, the “Solubility in Acetone” value is on record as “insoluble”, the “Solubility in Methanol” value came out at 1.89 g and the “Solubility in Tetrahydrofuran” value was “insoluble”. The “Solubility in Water” value in series [2] is reported as 2.0 g.

As to `CC(CO)(CO)NC(=O)C(C)(C)N=NC(C)(C)C(=O)NC(C)(CO)CO` [Known compound 3, 2,2'-azobis {2-methyl-N-[1,1-bis(hydroxymethyl)ethyl]propionamide}], in series [2], the “Solubility in 2-butanol” value was “insoluble”, the “Solubility in Acetone” value was “insoluble”, the “Solubility in Methanol” value was 5.18 g and the “Solubility in Tetrahydrofuran” value is listed as “insoluble”. In addition, the “Solubility in Water” value in series [2] was found to be 0.6 g.

Take `CC[C@H](CO)NC(=O)C(C)(C)N=NC(C)(C)C(=O)N[C@H](CC)CO` [Present compound 1, 2,2'-azobis[N-(butanol-2-yl)-2-methylpropionamide]]: in series [1], the “10 hours half life temperature” value is 84.7 °C. Also, in series [2], the “Solubility in a various kind of polar solvents compared with Known compounds 1, 2 and 3 (in words)” value is “remarkably higher”; the “Solubility in rather low polar solvents such as 2-butanol (in words)” value is on record as “soluble”; the “Solubility in 2-butanol” value is given as above 10 g; the “Solubility in Acetone” value is given as above 10 g. For the same molecule, in series [2], the “Solubility in Methanol” value is reported as above 10 g, the “Solubility in Tetrahydrofuran” value was above 10 g and the “Solubility in Water” value is given as above 10 g.
